ChEMBL document CHEMBL6127009, “Discovery of L15 as a novel Vif PROTAC degrader with antiviral activity against HIV-1” (Bioorg Med Chem Lett, 2024)
Structures can show the parent of a compound that is named as a salt. Activity calls are given as the source filed them. No cut-off for these calls is given here.

What was measured:
[1] = Cytotoxicity against human TZM-bl cells; type: toxicity, cell-based
[2] = tested on: Human immunodeficiency virus 1; assay: Antiviral activity against HIV-1 IIIB infected in TZM-bl cells; type: functional, organism-based; conditions: Human immunodeficiency virus 1, IIIB
[3] = Therapeutic index, ratio of CC50 for human TZM-bl cells to EC50 for HIV IIIB infected in TZM-bl cells; type: toxicity, cell-based; conditions: read-out: Ratio CC50/EC50
[4] = biological target: T1, Protein cereblon/Virion infectivity factor (Human immunodeficiency virus type 1 group M subtype B (isolate NY5)(HIV-1)) (UniProt Q96SW2+P12504); assay: PROTAC activity at CRBN (unknown origin)/Vif in HIV-1 TREX-hvif-15 cells assessed as reduction in Vif protein level at 50 uM pretreated with MG132 followed by compound addition and measured after 24 hrs by Western blotting analysis; type: cell-based; conditions: TREX-hvif-15 cell
T1 sequence (P12504 whole entry, looked up): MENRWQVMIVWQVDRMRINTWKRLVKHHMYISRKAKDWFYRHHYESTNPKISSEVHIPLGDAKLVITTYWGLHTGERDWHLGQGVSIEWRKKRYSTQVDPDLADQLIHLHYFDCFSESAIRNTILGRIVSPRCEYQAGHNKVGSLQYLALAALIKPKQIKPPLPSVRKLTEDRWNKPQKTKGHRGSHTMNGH
T1 sequence (Q96SW2 whole entry, looked up): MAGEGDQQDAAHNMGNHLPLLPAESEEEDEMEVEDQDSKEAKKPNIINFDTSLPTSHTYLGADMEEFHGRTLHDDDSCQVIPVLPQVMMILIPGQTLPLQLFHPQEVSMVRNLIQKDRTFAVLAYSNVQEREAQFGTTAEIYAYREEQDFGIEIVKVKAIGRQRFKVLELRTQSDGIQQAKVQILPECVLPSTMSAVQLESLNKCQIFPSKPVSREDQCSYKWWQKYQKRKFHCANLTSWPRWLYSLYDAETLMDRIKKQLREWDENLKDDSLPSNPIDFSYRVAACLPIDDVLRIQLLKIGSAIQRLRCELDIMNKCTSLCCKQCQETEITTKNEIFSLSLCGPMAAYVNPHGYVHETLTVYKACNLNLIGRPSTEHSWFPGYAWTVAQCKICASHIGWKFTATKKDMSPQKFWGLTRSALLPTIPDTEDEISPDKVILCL

[5] = tested on: Human immunodeficiency virus 1; assay: Antiviral activity against HIV-1 9498 infected in C8166 cells; type: functional, organism-based; conditions: Human immunodeficiency virus 1, 9498, C8166
[6] = tested on: Human immunodeficiency virus 1; assay: Antiviral activity against HIV-1 2802 infected in C8166 cells; type: functional, organism-based; conditions: Human immunodeficiency virus 1, 2802, C8166
[7] = biological target: T1, Protein cereblon/Virion infectivity factor (Human immunodeficiency virus type 1 group M subtype B (isolate NY5)(HIV-1)); assay: PROTAC activity at CRBN (unknown origin)/Vif in HIV-1 TREX-hvif-15 cells assessed as reduction in Vif protein level at 50 uM by Western blotting analysis; type: cell-based; conditions: TREX-hvif-15 cell

Row | Molecule | CC50 [1] [µM] | EC50 [2] [µM] | further results
1 | COc1ccc(OCC(=O)NCCOCCOCCOCCNCC(=O)Nc2cccc3c2C(=O)N(C2CCC(=O)NC2=O)C3=O)cc1NC(=O)c1c(N)cccc1Sc1ccc([N+](=O)[O-])cc1 (stereo unspecified) | > 200 | > 100 | –
2 | COc1ccc(OCC(=O)NCCOCCOCCOCCNCC(=O)Nc2cccc3c2C(=O)N(C2CCC(=O)NC2=O)C3=O)cc1NC(=O)c1c(N)cccc1S(=O)(=O)c1ccc([N+](=O)[O-])cc1 (stereo unspecified) | > 200 | 21.3 | selectivity ratio [3]: > 9.39
3 | COc1ccc(OCC(=O)NCCOCCOCCOCCNc2cccc3c2C(=O)N(C2CCC(=O)NC2=O)C3=O)cc1NC(=O)c1c(N)cccc1Sc1ccc([N+](=O)[O-])cc1 (stereo unspecified) | > 200 | > 100 | –
4 | COc1ccc(OCC(=O)NCCOCCOCCNc2cccc3c2C(=O)N(C2CCC(=O)N(C)C2=O)C3=O)cc1NC(=O)c1c(N)cccc1Sc1ccc([N+](=O)[O-])cc1 (stereo unspecified) | – | – | Activity [4]: inactive
5 | COc1ccc(OCC(=O)NCCOCCNCC(=O)Nc2cccc3c2C(=O)N(C2CCC(=O)NC2=O)C3=O)cc1NC(=O)c1c(N)cccc1S(=O)(=O)c1ccc([N+](=O)[O-])cc1 (stereo unspecified) | > 200 | > 100 | –
6 | COc1ccc(OCC(=O)NCCOCCOCCNc2cccc3c2C(=O)N(C2CCC(=O)NC2=O)C3=O)cc1NC(=O)c1c(N)cccc1S(=O)(=O)c1ccc([N+](=O)[O-])cc1 (stereo unspecified) | > 200 | > 100 | –
7 | COc1ccc(OCC(=O)NCCCCCCNc2cccc3c2C(=O)N(C2CCC(=O)NC2=O)C3=O)cc1NC(=O)c1c(N)cccc1S(=O)(=O)c1ccc([N+](=O)[O-])cc1 (stereo unspecified) | > 200 | > 100 | –
8 | enfuvirtide | – | – | EC50 [5]: > 10 µM
9 | CC(C)CN(C[C@@H](O)[C@H](Cc1ccccc1)NC(=O)O[C@H]1CO[C@H]2OCC[C@H]21)S(=O)(=O)c1ccc(N)cc1 [DARUNAVIR] | – | – | EC50 [6]: < 0.032 µM
10 | COc1ccc(O)cc1NC(=O)c1c(N)cccc1S(=O)(=O)c1ccc([N+](=O)[O-])cc1 | > 200 | 2.14 | Activity [7]: inactive; selectivity ratio [3]: > 93.5
11 | CC(C)OC(=O)OCOP(=O)(CO[C@H](C)Cn1cnc2c(N)ncnc21)OCOC(=O)OC(C)C [TENOFOVIR DISOPROXIL FUMARATE] | > 200 | 0.005 | selectivity ratio [3]: > 43800
12 | COc1ccc(OCC(=O)NCCCCNCC(=O)Nc2cccc3c2C(=O)N(C2CCC(=O)NC2=O)C3=O)cc1NC(=O)c1c(N)cccc1S(=O)(=O)c1ccc([N+](=O)[O-])cc1 (stereo unspecified) | > 200 | > 100 | –
13 | COc1ccc(OCC(=O)NCCCCCCCCCCNc2cccc3c2C(=O)N(C2CCC(=O)NC2=O)C3=O)cc1NC(=O)c1c(N)cccc1Sc1ccc([N+](=O)[O-])cc1 (stereo unspecified) | > 200 | > 100 | –
14 | COc1ccc(OCC(=O)NCCCCNc2cccc3c2C(=O)N(C2CCC(=O)NC2=O)C3=O)cc1NC(=O)c1c(N)cccc1S(=O)(=O)c1ccc([N+](=O)[O-])cc1 (stereo unspecified) | > 200 | > 100 | –
15 | COc1ccc(OCC(=O)NCCCCNCC(=O)Nc2cccc3c2C(=O)N(C2CCC(=O)NC2=O)C3=O)cc1NC(=O)c1c(N)cccc1Sc1ccc([N+](=O)[O-])cc1 (stereo unspecified) | > 200 | > 100 | –
16 | COc1ccc(OCC(=O)NCCCCCCNc2cccc3c2C(=O)N(C2CCC(=O)NC2=O)C3=O)cc1NC(=O)c1c(N)cccc1Sc1ccc([N+](=O)[O-])cc1 (stereo unspecified) | > 200 | > 100 | –
17 | COc1ccc(OCC(=O)NCCCCCCNCC(=O)Nc2cccc3c2C(=O)N(C2CCC(=O)NC2=O)C3=O)cc1NC(=O)c1c(N)cccc1S(=O)(=O)c1ccc([N+](=O)[O-])cc1 (stereo unspecified) | > 200 | > 100 | –
18 | COc1ccc(OCC(=O)NCCCCCCCCCCNCC(=O)Nc2cccc3c2C(=O)N(C2CCC(=O)NC2=O)C3=O)cc1NC(=O)c1c(N)cccc1S(=O)(=O)c1ccc([N+](=O)[O-])cc1 (stereo unspecified) | > 200 | 29 | selectivity ratio [3]: > 6.9
19 | COc1ccc(OCC(=O)NCCOCCOCCOCCNc2cccc3c2C(=O)N(C2CCC(=O)NC2=O)C3=O)cc1NC(=O)c1c(N)cccc1S(=O)(=O)c1ccc([N+](=O)[O-])cc1 (stereo unspecified) | > 200 | > 100 | –

Row | Molecule | CC50 [1] [µM] | EC50 [2] [µM] | further results
20 | COc1ccc(OCC(=O)NCCNc2cccc3c2C(=O)N(C2CCC(=O)NC2=O)C3=O)cc1NC(=O)c1c(N)cccc1S(=O)(=O)c1ccc([N+](=O)[O-])cc1 (stereo unspecified) | > 200 | > 100 | –
21 | COc1ccc(OCC(=O)NCCCCCCCCNCC(=O)Nc2cccc3c2C(=O)N(C2CCC(=O)NC2=O)C3=O)cc1NC(=O)c1c(N)cccc1Sc1ccc([N+](=O)[O-])cc1 (stereo unspecified) | > 200 | > 100 | –
22 | COc1ccc(OCC(=O)NCCCCCCCCNc2cccc3c2C(=O)N(C2CCC(=O)NC2=O)C3=O)cc1NC(=O)c1c(N)cccc1S(=O)(=O)c1ccc([N+](=O)[O-])cc1 (stereo unspecified) | > 200 | > 100 | –
23 | COc1ccc(OCC(=O)NCCOCCNCC(=O)Nc2cccc3c2C(=O)N(C2CCC(=O)NC2=O)C3=O)cc1NC(=O)c1c(N)cccc1Sc1ccc([N+](=O)[O-])cc1 (stereo unspecified) | > 200 | > 100 | –
24 | COc1ccc(O)cc1NC(=O)c1c(N)cccc1Sc1ccc([N+](=O)[O-])cc1 | > 200 | 5.97 | Activity [7]: inactive; selectivity ratio [3]: > 33.5
25 | COc1ccc(OCC(=O)NCCCCCCCCNCC(=O)Nc2cccc3c2C(=O)N(C2CCC(=O)NC2=O)C3=O)cc1NC(=O)c1c(N)cccc1S(=O)(=O)c1ccc([N+](=O)[O-])cc1 (stereo unspecified) | > 200 | > 100 | –
26 | COc1ccc(OCC(=O)NCCOCCOCCNCC(=O)Nc2cccc3c2C(=O)N(C2CCC(=O)NC2=O)C3=O)cc1NC(=O)c1c(N)cccc1S(=O)(=O)c1ccc([N+](=O)[O-])cc1 (stereo unspecified) | > 200 | 66.9 | selectivity ratio [3]: > 2.99
27 | COc1ccc(OCC(=O)NCCCCCCCCCCNc2cccc3c2C(=O)N(C2CCC(=O)NC2=O)C3=O)cc1NC(=O)c1c(N)cccc1S(=O)(=O)c1ccc([N+](=O)[O-])cc1 (stereo unspecified) | > 200 | > 100 | –
28 | COc1ccc(OCC(=O)NCCCCCCNCC(=O)Nc2cccc3c2C(=O)N(C2CCC(=O)NC2=O)C3=O)cc1NC(=O)c1c(N)cccc1Sc1ccc([N+](=O)[O-])cc1 (stereo unspecified) | > 200 | > 100 | –
29 | COc1ccc(OCC(=O)NCCOCCOCCNCC(=O)Nc2cccc3c2C(=O)N(C2CCC(=O)NC2=O)C3=O)cc1NC(=O)c1c(N)cccc1Sc1ccc([N+](=O)[O-])cc1 (stereo unspecified) | > 200 | 53.1 | selectivity ratio [3]: > 3.77
30 | COc1ccc(OCC(=O)NCCCCCCCCCCNCC(=O)Nc2cccc3c2C(=O)N(C2CCC(=O)NC2=O)C3=O)cc1NC(=O)c1c(N)cccc1Sc1ccc([N+](=O)[O-])cc1 (stereo unspecified) | > 200 | > 100 | –
31 | COc1ccc(OCC(=O)NCCNCC(=O)Nc2cccc3c2C(=O)N(C2CCC(=O)NC2=O)C3=O)cc1NC(=O)c1c(N)cccc1S(=O)(=O)c1ccc([N+](=O)[O-])cc1 (stereo unspecified) | > 200 | > 100 | –
32 | COc1ccc(OCC(=O)NCCOCCNc2cccc3c2C(=O)N(C2CCC(=O)NC2=O)C3=O)cc1NC(=O)c1c(N)cccc1S(=O)(=O)c1ccc([N+](=O)[O-])cc1 (stereo unspecified) | > 200 | > 100 | –
33 | COc1ccc(OCC(=O)NCCOCCNc2cccc3c2C(=O)N(C2CCC(=O)NC2=O)C3=O)cc1NC(=O)c1c(N)cccc1Sc1ccc([N+](=O)[O-])cc1 (stereo unspecified) | > 200 | > 100 | –
34 | COc1ccc(OCC(=O)NCCCCNc2cccc3c2C(=O)N(C2CCC(=O)NC2=O)C3=O)cc1NC(=O)c1c(N)cccc1Sc1ccc([N+](=O)[O-])cc1 (stereo unspecified) | > 200 | 34.8 | selectivity ratio [3]: > 5.76
35 | COc1ccc(OCC(=O)NCCNCC(=O)Nc2cccc3c2C(=O)N(C2CCC(=O)NC2=O)C3=O)cc1NC(=O)c1c(N)cccc1Sc1ccc([N+](=O)[O-])cc1 (stereo unspecified) | > 200 | > 100 | –
36 | COc1ccc(OCC(=O)NCCCCCCCCNc2cccc3c2C(=O)N(C2CCC(=O)NC2=O)C3=O)cc1NC(=O)c1c(N)cccc1Sc1ccc([N+](=O)[O-])cc1 (stereo unspecified) | > 200 | > 100 | –
37 | COc1ccc(OCC(=O)NCCNc2cccc3c2C(=O)N(C2CCC(=O)NC2=O)C3=O)cc1NC(=O)c1c(N)cccc1Sc1ccc([N+](=O)[O-])cc1 (stereo unspecified) | > 200 | > 100 | –
